Reference: the supplement of paper PMC4862054
Several values for one entry are separate records, joined by “and”; a condition that tells them apart may be missing. Equal values may be shown once.

Each compound was assayed on CAL-148 (assay: normalised viability (% of control), CellTiter-Blue; higher = more viable cells (100 = DMSO, 0 = benzethonium chloride kill control)). Conditions: 1 nM; incubation time: 72 h.
Method in brief: (§1)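 384-well plates were pre-loaded with compound in 5 µl medium before 20 µl of breast cancer cell suspension was seeded. Following 72 h incubation, 2.5 µl CellTiter-Blue reagent was added for 2 h at 37 °C. Fluorescence was read at 560/590 nm and plates were normalised to vehicle (100) and a positive kill control (0), checked by Z'-factor. Normalised viability is reported at a single listed concentration of the series.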
In the case of `Cc1ccc(-c2cc(C(F)(F)F)nn2-c2ccc(S(N)(=O)=O)cc2)cc1` [Celecoxib], the normalised viability is reported as 95.4%.

Each compound was assayed on CAL-120 in the same assay as above. Conditions: 0.099 nM; incubation time: 72 h.
Method in brief: as §1
`CCN(CC)CCCC(C)Nc1c2ccc(Cl)cc2nc2ccc(OC)cc12` (centres undefined) [Mepacrine] gave a normalised viability of 114%.

Same assay, conditions: 0.1 nM; incubation time: 72 h
`O=C(/C=C/c1cccnc1)NCCCCC1CCN(C(=O)c2ccccc2)CC1` [FK-866] gave a normalised viability of 106%. `CC[C@@H]1C(=O)N(C)c2cnc(Nc3ccc(C(=O)NC4CCN(C)CC4)cc3OC)nc2N1C1CCCC1` [BI 2536] gave a normalised viability of 91.8%.

Same assay, conditions: 1 nM; incubation time: 72 h
`Nc1nc(F)nc2c1ncn2[C@@H]1O[C@H](CO)[C@@H](O)[C@@H]1O` [Fludarabine] gave a normalised viability of 83%. `Nc1ncn([C@H]2C[C@H](O)[C@@H](CO)O2)c(=O)n1` [Decitabine] was tested, and the normalised viability was 84.8% and 82.6%. With `O=C(O)C1(C(=O)O)CCC1.[NH2-].[NH2-].[Pt+2]` [Carboplatin] the normalised viability was 84.1%. With `N#Cc1ccc(C(c2ccc(C#N)cc2)n2cncn2)cc1` [Letrozole] the normalised viability was 74.3%. Compound `C1CN1c1nc(N2CC2)nc(N2CC2)n1` [Triethylenemelamine] has a normalised viability of 103%. `CCCS(=O)(=O)Nc1ccc(F)c(C(=O)c2c[nH]c3ncc(-c4ccc(Cl)cc4)cc23)c1F` [Vemurafenib] showed a normalised viability of 95.3%. For `O=C(O)C(=O)O.[NH-][C@@H]1CCCC[C@H]1[NH-].[Pt+2]` [Oxaliplatin], the normalised viability was 84.8%. In the case of `CCN(CC)CCCC(C)Nc1c2ccc(Cl)cc2nc2ccc(OC)cc12` (centres undefined) [Mepacrine], the normalised viability is reported as 97.7%. `Cc1ccc(-c2cc(C(F)(F)F)nn2-c2ccc(S(N)(=O)=O)cc2)cc1` [Celecoxib] showed a normalised viability of 78.3%.

These compounds were tested on MDA-MB-453 (assay: normalised viability (% of control), CellTiter-Blue; higher = more viable cells (about 100 = DMSO control)). Conditions: 297 nM; incubation time: 72 h.
Experimental: (§2)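 DSRT, CellTiter-Blue viability, 72 h incubation. Signal is normalised to DMSO and benzethonium chloride controls. Value is the normalised response at dose 8.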
`CCN(CC)CCCC(C)Nc1c2ccc(Cl)cc2nc2ccc(OC)cc12` (centres undefined) [Mepacrine] showed a normalised viability of 89%.

Same assay, conditions: 300 nM; incubation time: 72 h
For `O=C(/C=C/c1cccnc1)NCCCCC1CCN(C(=O)c2ccccc2)CC1` [FK-866], the normalised viability was 22.4%. `CC[C@@H]1C(=O)N(C)c2cnc(Nc3ccc(C(=O)NC4CCN(C)CC4)cc3OC)nc2N1C1CCCC1` [BI 2536] showed a normalised viability of 39.5%.

Same assay, conditions: 3000 nM; incubation time: 72 h
With `Nc1nc(F)nc2c1ncn2[C@@H]1O[C@H](CO)[C@@H](O)[C@@H]1O` [Fludarabine] the normalised viability was 111%. `Nc1ncn([C@H]2C[C@H](O)[C@@H](CO)O2)c(=O)n1` [Decitabine] was tested, and the normalised viability was 87% and 93.1%. For `O=C(O)C1(C(=O)O)CCC1.[NH2-].[NH2-].[Pt+2]` [Carboplatin], the normalised viability was 105%. With `N#Cc1ccc(C(c2ccc(C#N)cc2)n2cncn2)cc1` [Letrozole] the normalised viability was 105%. With `C1CN1c1nc(N2CC2)nc(N2CC2)n1` [Triethylenemelamine] the normalised viability was 113%. `CCCS(=O)(=O)Nc1ccc(F)c(C(=O)c2c[nH]c3ncc(-c4ccc(Cl)cc4)cc23)c1F` [Vemurafenib] showed a normalised viability of 87.3%. For `O=C(O)C(=O)O.[NH-][C@@H]1CCCC[C@H]1[NH-].[Pt+2]` [Oxaliplatin], the normalised viability was 100%. Compound `CCN(CC)CCCC(C)Nc1c2ccc(Cl)cc2nc2ccc(OC)cc12` (centres undefined) [Mepacrine] has a normalised viability of 43.1%. In the case of `Cc1ccc(-c2cc(C(F)(F)F)nn2-c2ccc(S(N)(=O)=O)cc2)cc1` [Celecoxib], the normalised viability is reported as 91.7%.

What follows are compounds tested on HDQ-P1 in the same assay as above. Conditions: 297 nM; incubation time: 72 h.
Experimental: as §2
Compound `CCN(CC)CCCC(C)Nc1c2ccc(Cl)cc2nc2ccc(OC)cc12` (centres undefined) [Mepacrine] has a normalised viability of 56.8%.

Same assay, conditions: 300 nM; incubation time: 72 h
With `O=C(/C=C/c1cccnc1)NCCCCC1CCN(C(=O)c2ccccc2)CC1` [FK-866] the normalised viability was 51.6%. `CC[C@@H]1C(=O)N(C)c2cnc(Nc3ccc(C(=O)NC4CCN(C)CC4)cc3OC)nc2N1C1CCCC1` [BI 2536] was tested, and the normalised viability was 65.2%.

Same assay, conditions: 3000 nM; incubation time: 72 h
Compound `Nc1nc(F)nc2c1ncn2[C@@H]1O[C@H](CO)[C@@H](O)[C@@H]1O` [Fludarabine] has a normalised viability of 108%. In the case of `Nc1ncn([C@H]2C[C@H](O)[C@@H](CO)O2)c(=O)n1` [Decitabine], the normalised viability is reported as 88.6% and 93.3%. With `O=C(O)C1(C(=O)O)CCC1.[NH2-].[NH2-].[Pt+2]` [Carboplatin] the normalised viability was 86%. With `N#Cc1ccc(C(c2ccc(C#N)cc2)n2cncn2)cc1` [Letrozole] the normalised viability was 94%. Work on `C1CN1c1nc(N2CC2)nc(N2CC2)n1` [Triethylenemelamine] yielded a normalised viability of 107%. `CCCS(=O)(=O)Nc1ccc(F)c(C(=O)c2c[nH]c3ncc(-c4ccc(Cl)cc4)cc23)c1F` [Vemurafenib] gave a normalised viability of 83.1%. Compound `O=C(O)C(=O)O.[NH-][C@@H]1CCCC[C@H]1[NH-].[Pt+2]` [Oxaliplatin] has a normalised viability of 102%. Compound `CCN(CC)CCCC(C)Nc1c2ccc(Cl)cc2nc2ccc(OC)cc12` (centres undefined) [Mepacrine] has a normalised viability of 42.9%. In the case of `Cc1ccc(-c2cc(C(F)(F)F)nn2-c2ccc(S(N)(=O)=O)cc2)cc1` [Celecoxib], the normalised viability is reported as 83.9%.

What follows are compounds tested on CAL-51 in the same assay as above. Conditions: 297 nM; incubation time: 72 h.
Experimental: as §2
Compound `CCN(CC)CCCC(C)Nc1c2ccc(Cl)cc2nc2ccc(OC)cc12` (centres undefined) [Mepacrine] has a normalised viability of 93.3%.

Same assay, conditions: 300 nM; incubation time: 72 h
`O=C(/C=C/c1cccnc1)NCCCCC1CCN(C(=O)c2ccccc2)CC1` [FK-866] gave a normalised viability of 34.6%. For `CC[C@@H]1C(=O)N(C)c2cnc(Nc3ccc(C(=O)NC4CCN(C)CC4)cc3OC)nc2N1C1CCCC1` [BI 2536], the normalised viability was 10.6%.

Same assay, conditions: 3000 nM; incubation time: 72 h
`Nc1nc(F)nc2c1ncn2[C@@H]1O[C@H](CO)[C@@H](O)[C@@H]1O` [Fludarabine] was tested, and the normalised viability was 104%. `Nc1ncn([C@H]2C[C@H](O)[C@@H](CO)O2)c(=O)n1` [Decitabine] was tested, and the normalised viability was 98.4% and 79.8%. Compound `O=C(O)C1(C(=O)O)CCC1.[NH2-].[NH2-].[Pt+2]` [Carboplatin] has a normalised viability of 115%. `N#Cc1ccc(C(c2ccc(C#N)cc2)n2cncn2)cc1` [Letrozole] gave a normalised viability of 111%.
